The text below walks through data of US6906081B2, “Use of dual H3/M2 antagonists in the treatment of cognition deficit disorders” (Schering Corporation, priority 2001, dated 2005).

SMILES strings stand for the structures.

One test addresses T1, H3 receptor (Cavia porcellus, UniProt Q9JI35).
T1 construct: from tissue; host or cells: guinea pig brain membranes
The test is described as follows: H3 receptor binding, displacement of radiolabeled Nα-methylhistamine from guinea pig brain membranes. The conditions noted are these: affinity for the H3 receptor. The source says: Compounds can readily be evaluated to determine activity at H3 receptors by known methods, including the guinea pig brain membrane assay and the guinea pig neurogenic ileum contraction assay, both of which are described in U.S. Pat. No. 5,352,707. Another useful assay utilizes rat brain membranes and is described by West et al., “Identification of Two H3-Histamine Receptor Subtypes,” Molecular Pharmacology, Vol. 38, pages 610-613 (1990).
A particularly useful screening assay measures binding to sites in guinea pig brain membranes. This test is described in detail by Korte et al., “Characterization and Tissue Distribution of H3 Histamine Receptors in Guinea Pigs by N^α-Methylhistamine,” in Biochemical and Biophysical Research Communications, Vol. 168, pages 979-986 (1990), and quantifies the displacement of bound radiolabeled N^α-methylhistamine from tissues by candidate compounds. Results are expressed as “Ki” values, in nanoMolar (nM) units, which values can be considered as being dissociation constants for the H3 antagonist on the H3 receptor system, or an index of antagonist affinity for the receptor. In general, Ki values less than about 200 nM are considered necessary for an agent to be useful as an H3 antagonist in the invention.

In test [1] the target is T2, cloned human m2 muscarinic receptor (Homo sapiens, UniProt P08172).
T2 sequence (P08172 1-466): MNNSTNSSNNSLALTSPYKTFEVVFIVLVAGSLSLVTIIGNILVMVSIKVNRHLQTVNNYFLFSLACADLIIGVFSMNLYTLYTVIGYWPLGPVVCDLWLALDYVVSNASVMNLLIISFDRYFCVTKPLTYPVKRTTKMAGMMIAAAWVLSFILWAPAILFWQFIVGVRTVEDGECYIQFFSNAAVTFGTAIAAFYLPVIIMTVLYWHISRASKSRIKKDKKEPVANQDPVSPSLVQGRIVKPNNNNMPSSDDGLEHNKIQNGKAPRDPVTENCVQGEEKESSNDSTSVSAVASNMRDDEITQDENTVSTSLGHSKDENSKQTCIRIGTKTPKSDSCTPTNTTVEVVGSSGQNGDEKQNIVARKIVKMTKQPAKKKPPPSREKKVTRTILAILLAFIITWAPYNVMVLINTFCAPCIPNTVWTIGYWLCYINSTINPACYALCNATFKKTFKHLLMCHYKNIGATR
The test is described as follows: Binding to cloned human m2 muscarinic receptor (3H-QNB, CHO cell membranes). The conditions noted are these: affinity for the m2 receptor; 3H-QNB displacement.

T1 sequence (Q9JI35 whole entry): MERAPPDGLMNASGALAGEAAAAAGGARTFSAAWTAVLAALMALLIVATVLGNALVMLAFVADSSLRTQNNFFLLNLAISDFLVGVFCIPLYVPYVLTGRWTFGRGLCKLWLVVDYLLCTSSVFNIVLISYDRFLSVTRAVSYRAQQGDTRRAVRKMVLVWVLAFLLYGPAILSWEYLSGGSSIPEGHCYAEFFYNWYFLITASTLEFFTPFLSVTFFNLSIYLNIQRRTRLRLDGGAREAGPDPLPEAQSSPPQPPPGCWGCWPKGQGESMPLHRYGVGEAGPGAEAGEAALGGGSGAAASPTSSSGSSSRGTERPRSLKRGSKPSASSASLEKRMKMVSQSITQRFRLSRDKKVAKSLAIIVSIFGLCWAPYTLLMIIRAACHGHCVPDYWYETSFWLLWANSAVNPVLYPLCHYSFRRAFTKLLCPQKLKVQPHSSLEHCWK

Regarding `CCCCOc1ccc(CN2CCC(N3CCC(C(=O)c4ccc(S(=O)(=O)c5ccc6c(c5)OCO6)cc4)CC3)CC2)cc1` [Compound 12], the Ki was 170 nM on H3 receptor and 4.8 nM in test [1].
On to `CC(C)(C)OC(=O)N1CCC(C2CCN(Cc3ccc(S(=O)(=O)c4ccc5c(c4)OCO5)cc3)CC2)CC1` [Compound 5], for which the results for the Ki (on H3 receptor; in test [1]) were 430 nM and 2.6 nM, respectively.
Turning to `CN(C)CCCOc1ccc(CN2CCC(C3CCN(Cc4ccc(S(=O)(=O)c5ccc6c(c5)OCO6)cc4)CC3)CC2)cc1` [Compound 8], the Ki on H3 receptor came out at 6 nM; in test [1], 0.05 nM.
For `CCN(CC)CCOc1ccc(CN2CCC(C3CCN(Cc4ccc(S(=O)(=O)c5ccc6c(c5)OCO6)cc4)CC3)CC2)cc1` [Compound 7], in that order: 22 nM and 0.07 nM.
For `O=C(NCC1CC1)c1ccc(CN2CCC(C3CCN(Cc4ccc(S(=O)(=O)c5ccc6c(c5)OCO6)cc4)CC3)CC2)cc1` [Compound 9], in that order: 290 nM and 0.22 nM.
For `CN(C)CCCOc1ccc(CN2CCC(N3CCC(C4(c5ccc(S(=O)(=O)c6ccc7c(c6)OCO7)cc5)OCCO4)CC3)CC2)cc1` [Compound 13], in that order: 12 nM and 0.8 nM.
For the compound `Cc1ccccc1C(=O)N1CCC(C2CCN(Cc3ccc(S(=O)(=O)c4ccc5c(c4)OCO5)cc3)CC2)CC1` [Compound 6], the Ki at H3 receptor was determined as 160 nM; in test [1], 1.2 nM.
In the same order, the values of `O=C(NCC1CC1)c1ccc(CN2CCC(C3CCN(Cc4ccc(C(=O)NCC5CC5)cc4)CC3)CC2)cc1` [Compound 3] are 500 nM and 0.125 nM.
On to `CCN(CC)CCOc1ccc(CN2CCC(C3CCN(Cc4ccc(C(=O)NC(C)C)cc4)CC3)CC2)cc1` [Compound 1], for which the results for the Ki (on H3 receptor; in test [1]) were 18 nM and 0.17 nM, respectively.
In the same order, the values of `CN(C)CCCOc1ccc(CN2CCC(N3CCC(C(=O)c4ccc(S(=O)(=O)c5ccc6c(c5)OCO6)cc4)CC3)CC2)cc1` [Compound 10] are 15 nM and 0.019 nM.
With `CCCCOc1ccc(CN2CCC(N3CCC(C4(c5ccc(S(=O)(=O)c6ccc7c(c6)OCO7)cc5)OCCO4)CC3)CC2)cc1` [Compound 15], the Ki was determined as 43 nM on H3 receptor and 0.17 nM in test [1].
As for `CCN(CC)CCOc1ccc(CN2CCC(N3CCC(C4(c5ccc(S(=O)(=O)c6ccc7c(c6)OCO7)cc5)OCCO4)CC3)CC2)cc1` [Compound 14], the Ki was 2 nM at H3 receptor and 0.7 nM in test [1].
Consider `CCCS(=O)(=O)N1CCC(N2CCC(C3(c4ccc(S(=O)(=O)c5ccc6c(c5)OCO6)cc4)OCCO3)CC2)CC1` [Compound 2], for which the results for the Ki (on H3 receptor; in test [1]) were 140 nM and 0.01 nM, respectively.
As for `c1ccc(CN2CCC(C3CCN(Cc4ccccc4)CC3)CC2)cc1` [Compound 4], the Ki on H3 receptor came to 620 nM; in test [1] it was 3.4 nM.
In the same order, the values of `CCN(CC)CCOc1ccc(CN2CCC(N3CCC(C(=O)c4ccc(S(=O)(=O)c5ccc6c(c5)OCO6)cc4)CC3)CC2)cc1` [Compound 11] are 8 nM and 0.018 nM.

The Ki is the equilibrium dissociation constant of an inhibitor or competing ligand from its target. Read a high Ki as a looser hold on the target.
